Measured values: patent US10329289B2, “6,7-dihydro-5H-pyrrolo[3,4-B]pyridin-5-one allosteric modulators of the M4 muscarinic acetylcholine receptor” (Merck Sharp & Dohme Corp., priority 2015, dated 2019)
pEC50: −log10 of the molar value.

Target: T1, human M4 muscarinic acetylcholine receptor (Homo sapiens, UniProt P08173)
T1 construct: expressed in transfected cells; host or cells: CHO-K1
T1 sequence (P08173 1-479): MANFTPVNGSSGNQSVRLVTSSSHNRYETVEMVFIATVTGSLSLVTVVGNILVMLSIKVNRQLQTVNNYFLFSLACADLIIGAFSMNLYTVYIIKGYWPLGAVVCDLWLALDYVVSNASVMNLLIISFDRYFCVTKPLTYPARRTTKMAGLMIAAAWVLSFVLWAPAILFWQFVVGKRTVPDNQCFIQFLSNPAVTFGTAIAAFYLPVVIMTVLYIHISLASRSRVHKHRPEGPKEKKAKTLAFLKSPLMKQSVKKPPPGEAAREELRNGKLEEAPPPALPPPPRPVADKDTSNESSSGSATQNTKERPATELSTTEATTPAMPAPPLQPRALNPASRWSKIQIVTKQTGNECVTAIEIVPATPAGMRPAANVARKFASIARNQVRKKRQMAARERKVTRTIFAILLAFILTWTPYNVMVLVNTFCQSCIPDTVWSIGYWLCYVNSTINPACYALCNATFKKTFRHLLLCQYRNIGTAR
Experiment: human FLIPR-based M4 PAM assay (Ca2+ mobilization, CHO-K1 cells with human M4 receptor and Gαqi5)
Type: cell-based
Settings: acetylcholine at 20% of maximum response, read-out: M4 PAM IP
Procedure: In a typical experiment the M4 muscarinic acetylcholine receptor modulating activity of the compounds of the present invention was determined in accordance with the following experimental method. CHO-K1 cells stably transfected with human M4 receptor and chimeric G-protein Gαqi5 (Coward P, et al., Analytical Biochemistry, 270:242-248 (1999)) are thawed from liquid N2 storage, resuspended in growth medium, plated in black, clear bottom 384 well plates, and incubated 16-20 hours at 37° C., 5% CO2. On the day of assay, growth medium is removed, the cells are washed 2 times with wash buffer, and cells are incubated in dye loading buffer at 37° C., 5% CO2 for ˜1 hour. […] Next, 10 uL of acetylcholine is added (final concentration calculated so as to achieve 20% of the maximum acetycholine response), and the fluorescence reading is continued for 3.5 min. In some cases, a third addition of acetylcholine (final concentration calculated to achieve 70% of the maximal acetylcholine response) is performed. The resulting dose response curves are fit to a 4 parameter logistic equation and the final result is determined as the inflection point (IP) of the curve
CHO-K1 cells stably transfected with human M4 receptor and chimeric G-protein Gαqi5 are thawed from liquid N2 storage, resuspended in growth medium, plated in black, clear bottom 384 well plates, and incubated 16-20 hours at 37° C., 5% CO2.
On the day of assay, growth medium is removed, the cells are washed 2 times with wash buffer, and cells are incubated in dye loading buffer at 37° C., 5% CO2 for ˜1 h. […] Next, 10 uL of acetylcholine is added (final concentration calculated so as to achieve 20% of the maximum acetycholine response), and the fluorescence reading is continued for 3.5 min. In some cases, a third addition of acetylcholine (final concentration calculated to achieve 70% of the maximal acetylcholine response) is performed.

| SMILES | pEC50 |
| --- | --- |
| Cc1cc2c(nc1N1CCC(OCC3(F)CCCC3)CC1)CNC2=O [Example 180, 2-(4-((1-fluorocyclopentyl)meth-oxy)piperidin-1-yl)-3-methyl-6,7-dihydro-5H-pyrrolo[3,4-b]pyridin-5-one] | 5.78 |
| Cc1c(N2CCC(OCC3CCC3)CC2)nc2c(c1C)C(=O)NC2 [Example 330, 2-(4-(cyclobutylmethoxy)piperidin-1-yl)-3,4-dimethyl-6,7-dihydro-5H-pyrrolo[3,4-b]pyridin-5-one] | 7.29 |
| Cc1cc2c(nc1N1CCC(Oc3ccc4c(cnn4C)c3)CC1)CN(C)C2=O [Example 32, 3,6-dimethyl-2-(4-((l-methyl-1H-indazol-5-yl)oxy)piperidin-1-yl)-6,7-dihydro-5H-pyrrolo[3,4-b]pyridin-5-one] | 7.43 |
| Cc1cc2c(nc1N1CCC(Oc3ccc4[nH]ncc4c3Cl)CC1)CNC2=O [Example 314, 2-(4-((4-Chloro-1H-indazol-5-yl)ox)piperidin-1-yl)-3-methyl-6,7-dihydro-5H-pyrrolo[3,4-b]pyridin-5-one] | 6.17 |
| Cc1cc2c(nc1N1CC[C@@H](Oc3ccc4c(cnn4C)c3)[C@@H](F)C1)[C@H](CO)N(C)C2=O [Example 284, (R)-2-((3S,4R)-3-fluoro-4-((1-methyl-1H-indazol-5-yl)oxy)piperidin-1-yl)-7-(hydroxymethyl)-3,6-dimethyl-6,7-dihydro-5H-pyrrolo[3,4-b]pyridin-5-one] | 5.36 |
| COc1ccc(OC2CCN(c3nc4c(cc3C)C(=O)N(C)C4C)CC2)cn1 (stereo not drawn) [Example 16, 2-(4-((6-methoxypyridin-3-yl)oxy)piperidin-1-yl)-3,6,7-trimethyl-6,7-dihydro-5H-pyrrolo[3,4-b]pyridin-5-one] | 7.09 |
| Cc1cc2c(nc1N1CCC(OC3CCOC3)CC1)CNC2=O (stereo not drawn) [Example 41, 3-methyl-2-(4-((tetrahydrofuran-3-yl)oxy)piperidin-1-yl)-6,7-dihydro-5H-pyrrolo[3,4-b]pyridin-5-one] | 4.95 |
| COc1cccc(OC2CCN(c3nc4c(cc3C)C(=O)NC4)CC2)c1 [Example 51, 2-(4-(3-methoxyphenoxy)piperidin-1-yl)-3-methyl-6,7-dihydro-5H-pyrrolo[3,4-b]pyridin-5-one] | 7.29 |
| Cc1cc2c(nc1N1CCC(Oc3ccc4c(c3)OCC(=O)N4)CC1)CNC2=O [Example 133, 7-((1-(3-methyl-5-oxo-6,7-dihydro-5H-pyrrolo[3,4-b]pyridin-2-yl)piperidin-4-yl)oxy)-2H-benzo[b][1,4]oxazin-3(4H)-one] | 6.21 |
| Cc1c(N2CC[C@@H](Oc3ccc4c(c3)COC4)[C@@H](F)C2)nc2c(c1C)C(=O)N(CCO)C2 [Example 261, 2-((3S,4R)-4-((1,3-dihydro-2-benzofuran-5-yl)oxy)-3-fluoropiperidin-1-yl)-6-(2-hydroxyethyl)-3,4-dimethyl-6,7-dihydro-5H-pyrrolo[3,4-b]pyridin-5-one] | 7.41 |
| Cc1cc2c(nc1N1CCC(OCC3(F)CC3)CC1)CNC2=O [Example 64A, 2-(4-((1-fluorocyclopropyl)methoxy)piperidin-1-yl)-3-methyl-6,7-dihydro-5H-pyrrolo[3,4-b]pyridin-5-one] | 6.72 |
| Cc1cc2c(nc1N1CCC(Oc3ccc4c(ccn4C)c3)CC1)CNC2=O [Example 27, 3-methyl-2-(4-((1-methyl-1H-indol-5-yl)oxy)piperidin-1-yl)-6,7-dihydro-5H-pyrrolo[3,4-b]pyridin-5-one] | 7.37 |
| COC(=O)c1cncc(OC2CCN(c3nc4c(cc3C)C(=O)NC4)CC2)c1 [Example 111, methyl 5-((1-(3-methyl-5-oxo-6,7-dihydro-5H-pyrrolo[3,4-b]pyridin-2-yl)piperidin-4-yl)oxy)nicotinate] | 5.36 |
| Cc1c(N2CCC(Oc3ccc4c(c3)COC4)CC2)nc2c(c1C)C(=O)N(C)[C@@H]2CO (single isomer, unassigned) [Example 337A] | 7.70 |
| Cc1cc2c(nc1N1CCC(Oc3ccc4c(c3)CNCC4)CC1)CNC2=O [Example 146, 3-methyl-2-(4-((1,2,3,4-tetrahydroisoquinolin-7-yl)oxy)piperidin-1-yl)-6,7-dihydro-5H-pyrrolo[3,4-b]pyridin-5-one] | 6.54 |
| CCc1cc2c(nc1N1CC[C@@H](Oc3ccc4c(c3)COC4)[C@H](F)C1)CNC2=O [Example 217, 2-((3R,4R)-4-((1,3-dihydro-2-benzofuran-5-yl)oxy)-3-fluoropiperidin-1-yl)-3-ethyl-6,7-dihydro-5H-pyrrolo[3,4-b]pyridin-5-one] | 7.38 |
| Cc1cc2c(nc1N1CCC(Oc3cnc4[nH]ncc4c3)CC1)CNC2=O [Example 206, 2-(4-((1H-pyrazolo[3,4-b]pyridin-5-yl)oxy)piperidin-1-pyrazolo[3,4-b]yl)-3-methyl-6,7-dihydro-5H-pyrrolo[3,4-b]pyridin-5-one] | 6.23 |
| Cc1cc2c(nc1N1CCC(Oc3ccc([C@H](C)O)cc3)CC1)CNC2=O (single isomer, unassigned) [Example 150B] | 6.71 |
| Cc1cc2c(nc1N1CCC(Oc3ccc(F)nc3)CC1)CNC2=O [Example 91, 2-(4-((6-fluoropyridin-3-yl)oxy)piperidin-1-yl)-3-methyl-6,7-dihydro-5H-pyrrolo[3,4-b]pyridin-5-one] | 7.22 |
| CCc1cc2c(nc1N1CCC(OCC3(C)CC3(F)F)CC1)CNC2=O (stereo not drawn) [Example 187A, 2-(4-((2,2-difluoro-1-methylcyclopropyl)meth-oxy)piperidin-1-yl)-3-ethyl-6,7-dihydro-5H-pyrrolo[3,4-b]pyridin-5-one] | 6.53 |
| Cc1c(N2CCC(Oc3ccc(F)cc3)CC2)nc2c(c1C)C(=O)N(C)[C@H]2CO [Example 354, (R)-2-(4-(4-fluorophenoxy)piperidin-1-yl)-7-(hydroxymethyl)-3,4,6-trimethyl-6,7-dihydro-5H-pyrrolo[3,4-b]pyridin-5-one] | 5.83 |
| COc1ccc(O[C@@H]2C[C@H]3CC[C@@H](C2)N3c2nc3c(cc2C)C(=O)NC3)cn1 [Example 99, 2-(exo-3-((6-methoxypyridin-3-yl)oxy)-8-azabicyclo[3.2.1]octan-8-yl)-3-methyl-6,7-dihydro-5H-pyrrolo[3,4-b]pyridin-5-one] | 6.13 |
| Cc1cncc(OC2CCN(c3nc4c(c(C)c3C)C(=O)NC4)CC2)c1 [Example 220A, 3,4-dimethyl-2-(4-((5-methylpyridin-3-yl)oxy)piperidin-1-yl)-6,7-dihydro-5H-pyrrolo[3,4-b]pyridin-5-one] | 7.08 |
| Cc1cc2c(nc1N1CCC(OCC(C)C)CC1)CNC2=O [Example 192, 2-(4-isobutoxypiperidin-1-yl)-3-methyl-6,7-dihydro-5H-pyrrolo[3,4-b]pyridin-5-one] | 6.51 |
| Cc1c(N2CCC(Oc3cnc4c(c3)COC4)CC2)nc2c(c1C)C(=O)NC2 [Example 227, 2-(4-((5,7-dihydrofuro[3,4-b]pyridin-3-yl)oxy)piperidin-1-yl)-3,4-dimethyl-6,7-dihydro-5H-pyrrolo[3,4-b]pyridin-5-one] | 6.36 |
| COc1ccc(OC2CCN(c3nc4c(cc3C)C(=O)N(C)C4(CO)CO)CC2)cn1 [Example 274, 7,7-Bis(hydroxymethyl)-2-(4-((6-methoxpyridin-3-yl)oxy)piperidin-1-yl)-3,6-dimethyl-6,7-dihydro-5H-pyrrolo[3,4-b]pyridin-5-one] | 5.93 |
| Cc1cc2c(nc1N1CCC(Oc3cnn(CC4CC4)c3)CC1)CNC2=O [Example 321A, 2-(4-((1-(cyclopropylmethyl)-1H-pyrazol-4-yl)oxy)piperidin-1-yl)-3-methyl-6,7-dihydro-5H-pyrrolo[3,4-b]pyridin-5-one] | 6.36 |
| Cc1nc2ccc(OC3CCN(c4nc5c(cc4C)C(=O)NC5)CC3)cc2o1 [Example 69, 3-methyl-2-(4-((2-methylbenzo[d]oxazol-6-yl)oxy)piperidin-1-yl)-6,7-dihydro-5H-pyrrolo[3,4-b]pyridin-5-one] | 7.06 |
| CCc1cc2c(nc1N1CCC(Oc3ccccc3)CC1)CNC2=O [Example 202, 3-ethyl-2-(4-phenoxypiperidin-1-yl)-6,7-dihydro-5H-pyrrolo[3,4-b]pyridin-5-one] | 6.83 |
| Cc1cc2c(nc1N1CCC(Oc3cccc(C#N)c3)CC1)CN(P(=O)(O)O)C2=O [Example 325, Ammonium (2-(4-(3-cyanophenoxy)piperidin-1-yl)-3-methyl-5-oxo-5,7-dihydro-6H-pyrrolo[3,4-b]pyridin-6-yl)phosphonate] | 6.69 |
